Drawing on patent publication US20110104081A1, “Oral Compositions for Treatment of Dry Mouth” (priority 2009, published 2011), this text covers Water gain for one compound.

A short description of the data set: Water gain (moisture uptake) of treated cotton swatches. Format: physicochemical. The conditions noted are these: dried. The procedure: For table 2, the test method is as follows: For “no rinse”: 1×1 cm cotton swatches (triplicates) are placed into a weigh boat where each is labeled according to treatment type and number. Initial weights are recorded for each sample. 500 uL of polymer solution is applied to each cotton swatch sample then reweighed as wet weight. Samples are allowed to dry overnight at room temperature conditions. Sample weights are recorded in the following morning as “no rinse”. Samples are then placed on a tray in the incubator at 37° C., 3.3% CO2, and approximately 90% humidity (the metal tray at the bottom of the incubator has plenty of distilled water in the pan to ensure constant humidity). Opening and closing the incubator door frequently causes parameters to shift so minimizing this will ensure proper control over parameter. Samples are incubated for 8 hours then reweighed. The weights represent the moisture uptake ability for the treated samples. For “with rinse”: Following the weighing, samples are rinsed for 5 seconds in 500 g of vortexing water, and placed into respective weigh boat. Samples are dried overnight at room temperature conditions. Samples are weighed and placed in the incubator the following morning similar to above described procedure and weights are recorded as “with rinse”.

Consider `OCC(O)CO` [40% glycerin, glycerin], for which the Water gain reads like this: (No Rinse, incubated 8 hours at 37° C., approximately 90% humidity) 393.3 mg; (With Rinse, rinsed with water, incubated) 126.9 mg.
